# Legend:
# [1] = test system: 5'GAG/3'CCC internal loop RNA (Cy5-labeled model of pri-miR-27a's Drosha site) (RNA, mismatch bulge abasic) CUGAGGUGAAACAUCCCAG; experiment: microscale thermophoresis; conditions: 1x Binding Buffer; for Kd: 0.1% Tween-20, 10 nM Cy5-RNA, room temperature
# [2] = test system: 5'CAG/3'GCC internal loop RNA (closing GC mutated to CG) (RNA, mismatch bulge abasic) CUCAGGUGAAACAUCCGAG; experiment: microscale thermophoresis; conditions: 1x Binding Buffer, 0.1% Tween-20, room temperature; for Kd: no saturable binding
# [3] = test system: fully paired RNA (loop mutated to a base pair) (RNA, hairpin) CUGAGGUGAAACAUCUCAG; experiment: microscale thermophoresis; conditions: 1x Binding Buffer, 0.1% Tween-20, room temperature
# [4] = test system: WT pri-miR-27a (unlabeled miR-27a precursor) (RNA, miRNA) GAGAGAGGCCCCGAAGCCUGUGCCUGGCCUGAGGAGCAGGGCUUAGCUGCUUGUGAGCAGGGUCCACACCAAGUCGUGUUCACAGUGGCUAAGUUCCGCCCCCCAGGCCCUCACCUCCUCUGGCCUUGCC; experiment: competitive binding assay; conditions: 100 nM compound; competes with Cy5-labeled model of the Drosha site
# [5] = test system: mutated pri-miR-27a (both 5'GAG/3'CCC loops mutated to base pairs) (RNA, miRNA) GAGAGAGGCCCCGAAGCCUGUGCCUGGCCUGAGGAGCAGGGCUUAGCUGCUUGUGAGCAGGGUCCACACCAAGUCGUGUUCACAGUGGCUAAGUUCCGCUCCUCAGGCCCUCACCUCCUCUGGCCUUGCC; experiment: competitive binding assay; conditions: 100 nM compound; competes with Cy5-labeled model of the Drosha site
Kd [1] [nM],Kd [2] [nM],binding ([3]; no saturable binding),Kd [4] [nM],binding [5],"binding ([1]; 0.1% Tween-20, room temperature)",binding [2],binding [3],Compound
90 ± 20,> 50000,no,40 ± 30,no,–,–,–,C#CCN(CC(N)=O)C(=O)C[C@H](Cc1c[nH]c2ccccc12)NC(=O)[C@@H]1C[C@H](NC(=O)Cn2c(=O)[nH]c3ccccc3c2=O)CN1
530 ± 90,> 50000,no,–,–,–,–,–,C#CCN(CC(N)=O)C(=O)[C@H](Cc1ccccc1C#N)NC(=O)[C@@H]1C[C@H](NC(=O)[C@H]2CCCO2)CN1
–,–,–,–,–,no,no,no,C#CCN(CC(N)=O)C(=O)C[C@H](Cc1c[nH]c2ccccc12)NC(=O)[C@@H]1C[C@@H](NC(=O)Cn2c(=O)[nH]c3ccccc3c2=O)CN1
700 ± 100,> 50000,no,–,–,–,–,–,C#CCN(CC(N)=O)C(=O)[C@@H]1CCN1C(=O)[C@@H]1C[C@H](N)CN1C(=O)c1ccccc1C(=O)N1CCOCC1

# Source: publication PMC8833215 (2022)
